According to patent publication US11130750B2, “Calcium channel inhibitors” (Cavion, Inc., priority 2017, dated 2021):

What was measured:
Assay type in all cases: cell-based
Cav3.2 = Cav3.2 (Homo sapiens (Human), UniProt O95180); test: Whole-cell voltage clamp recording, HEK293 cells expressing T-type channel Cav3.2; conditions: holding potential −100 mV, depolarized to −30 mV for 100 ms, room temperature
Protocol: (§1) Whole-cell voltage clamp recordings were performed on cultured HEK293 cells expressing T-type channels (encoded by Cav3.1, Cav3.2, or Cav3.3 channels). All experiments were performed at room temperature. Whole-cell currents were recorded using a MultiClamp 700B amplifier and analyzed offline with pCLAMP10.4 software (Molecular Devices, LLC, Sunnyvale Calif., USA). […] Test compounds were usually applied via a rapid solution exchange system with 8 fine polyplastic tubings glued in a holder in parallel and located closely to the recorded cells. The current responses were normalized to the control, percent inhibition was calculated and sigmoidal dose-response curettes we're generated using XLFIT (IDBS, Surrey, UK) or Prism (GraphPad Software, LA Jola, Calif., US) to calculate IC50 values and Hill slopes using the following equation Y=Bottom+(Top−Bottom)/1+10{circumflex over (()}(Log EC50−X)−HillsSlope)). IC50 values are given in micromolar units.

Cav3.3 = Cav3.3 (Homo sapiens (Human), UniProt Q9P0X4); test: Whole-cell voltage clamp recording, HEK293 cells expressing T-type channel Cav3.3; conditions: holding potential −100 mV, depolarized to −30 mV for 100 ms, room temperature
Protocol: as §1

[1] = tested on: Human Glioma cancer cell line U251; test: Cell Proliferation Assay by CCK-8 Reagent; conditions: Homo sapiens, U-251, 72 h, U251 cells, 72 hours incubation, CCK-8, % viability vs vehicle control
Protocol: Human Glioma cancer cell line U251 was maintained in DMEM (Gibco, Cat #10569-10) supplemented with 10% fetal bovine serum inactivated at 56° C. (Gibco, Cat #10082-147), 100 U/mL penicillin, and 100 μg/mL streptomycin (Gibco, Cat #15140-122) at 37° C. and 1% MEM non-essential amino acid (Sigma, Cat #M7145) in a humid atmosphere containing 5% CO2. The cells were seeded at 2.5×10^3 cells/well in a 96 well plate (BD falcon, Cat #353072) with 200 pt volume/well and kept in 37° C./5% CO2 incubator for 0/N incubation. The seeding density was optimized previously based on growth curve. On the next day, plated cells were incubated with each test compounds at eight different concentrations (100, 50, 25, 12.5, 6.25, 3.125, 1.5 and 0.78) in triplicates. DMSO was used as a Vehicle control and Culture medium was used as blank control for the assay in each plate. The percentage of DMSO was kept uniform across the plate as <1%. The compound treated cells were incubated in 37° C./5% CO2 incubator for 72 hours. After incubation period, […] CCK-8 reagent (Dojindo, Cat #CK04) was added in all the wells and plate was kept in 37° C./5% CO2 incubator for 3 hours. After CCK-8 incubation, absorbance was measured @ 450 nm using Spectrophotometer (BMG, Omega Polar Star). % Viability values at each concentration were calculated with respect to Vehicle control and EC50 values were calculated using graph pad prism software and are shown in Table A.

Cav3.1 = Cav3.1 (Homo sapiens (Human), UniProt O43497); test: Whole-cell voltage clamp recording, HEK293 cells expressing T-type channel Cav3.1; conditions: holding potential −100 mV, depolarized to −30 mV for 100 ms, room temperature
Protocol: as §1

Chain of Cav3.2 (O95180 whole entry): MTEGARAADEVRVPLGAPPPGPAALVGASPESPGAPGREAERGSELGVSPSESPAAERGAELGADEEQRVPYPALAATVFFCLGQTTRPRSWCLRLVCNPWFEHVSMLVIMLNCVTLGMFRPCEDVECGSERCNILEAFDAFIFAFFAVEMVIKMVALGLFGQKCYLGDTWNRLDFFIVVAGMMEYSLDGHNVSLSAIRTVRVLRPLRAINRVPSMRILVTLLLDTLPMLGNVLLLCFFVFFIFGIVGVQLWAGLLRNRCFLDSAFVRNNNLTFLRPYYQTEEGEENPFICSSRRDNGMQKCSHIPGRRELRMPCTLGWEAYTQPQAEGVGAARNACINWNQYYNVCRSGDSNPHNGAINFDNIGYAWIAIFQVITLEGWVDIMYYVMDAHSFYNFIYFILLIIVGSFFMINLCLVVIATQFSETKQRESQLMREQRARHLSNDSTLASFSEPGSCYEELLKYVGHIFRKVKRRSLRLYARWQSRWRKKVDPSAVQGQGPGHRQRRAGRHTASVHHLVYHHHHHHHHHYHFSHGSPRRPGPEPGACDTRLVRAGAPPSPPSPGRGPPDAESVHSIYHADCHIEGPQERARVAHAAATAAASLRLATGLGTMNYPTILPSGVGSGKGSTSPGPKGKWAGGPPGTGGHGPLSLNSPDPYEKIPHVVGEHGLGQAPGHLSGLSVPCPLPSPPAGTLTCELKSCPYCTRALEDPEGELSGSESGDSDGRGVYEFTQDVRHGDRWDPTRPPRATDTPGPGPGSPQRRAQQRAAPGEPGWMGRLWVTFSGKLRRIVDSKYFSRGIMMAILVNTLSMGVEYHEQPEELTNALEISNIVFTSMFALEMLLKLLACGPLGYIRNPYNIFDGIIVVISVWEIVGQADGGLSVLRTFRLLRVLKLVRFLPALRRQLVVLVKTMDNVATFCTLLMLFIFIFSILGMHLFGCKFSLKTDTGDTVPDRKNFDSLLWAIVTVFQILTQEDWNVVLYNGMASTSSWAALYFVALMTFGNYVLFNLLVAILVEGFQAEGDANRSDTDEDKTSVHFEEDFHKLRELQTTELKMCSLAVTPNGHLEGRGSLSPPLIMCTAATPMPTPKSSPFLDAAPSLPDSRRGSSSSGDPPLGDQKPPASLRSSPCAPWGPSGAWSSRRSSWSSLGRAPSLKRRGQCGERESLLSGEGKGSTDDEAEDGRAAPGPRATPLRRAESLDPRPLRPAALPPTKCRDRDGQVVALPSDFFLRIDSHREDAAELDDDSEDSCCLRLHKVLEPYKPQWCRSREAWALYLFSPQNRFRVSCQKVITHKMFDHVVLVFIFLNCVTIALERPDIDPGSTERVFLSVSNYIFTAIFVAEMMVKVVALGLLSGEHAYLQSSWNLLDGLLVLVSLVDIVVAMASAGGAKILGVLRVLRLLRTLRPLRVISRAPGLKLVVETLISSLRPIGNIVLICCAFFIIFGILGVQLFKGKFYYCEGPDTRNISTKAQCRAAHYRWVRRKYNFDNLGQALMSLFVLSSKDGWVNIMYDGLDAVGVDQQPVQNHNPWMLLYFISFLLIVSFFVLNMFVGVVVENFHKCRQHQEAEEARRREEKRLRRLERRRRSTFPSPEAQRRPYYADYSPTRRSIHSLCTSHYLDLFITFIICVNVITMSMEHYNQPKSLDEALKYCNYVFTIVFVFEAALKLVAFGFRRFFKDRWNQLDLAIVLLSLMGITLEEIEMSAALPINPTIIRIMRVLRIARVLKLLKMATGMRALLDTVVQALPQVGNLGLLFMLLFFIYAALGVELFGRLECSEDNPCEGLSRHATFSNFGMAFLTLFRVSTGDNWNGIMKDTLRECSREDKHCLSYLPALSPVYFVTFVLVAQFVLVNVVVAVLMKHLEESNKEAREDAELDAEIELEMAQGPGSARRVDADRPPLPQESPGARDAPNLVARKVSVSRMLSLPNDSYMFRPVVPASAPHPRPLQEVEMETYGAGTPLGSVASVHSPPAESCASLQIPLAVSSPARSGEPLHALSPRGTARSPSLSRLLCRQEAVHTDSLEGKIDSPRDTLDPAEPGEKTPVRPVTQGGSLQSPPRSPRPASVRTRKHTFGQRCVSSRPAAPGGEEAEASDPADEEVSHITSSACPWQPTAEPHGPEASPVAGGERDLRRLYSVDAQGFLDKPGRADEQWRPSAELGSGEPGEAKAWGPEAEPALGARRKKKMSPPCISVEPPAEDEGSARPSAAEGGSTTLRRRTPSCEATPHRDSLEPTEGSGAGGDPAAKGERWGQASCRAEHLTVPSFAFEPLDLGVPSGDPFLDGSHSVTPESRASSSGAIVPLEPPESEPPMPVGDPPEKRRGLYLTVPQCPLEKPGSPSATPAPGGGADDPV
Chain of Cav3.1 (O43497 whole entry): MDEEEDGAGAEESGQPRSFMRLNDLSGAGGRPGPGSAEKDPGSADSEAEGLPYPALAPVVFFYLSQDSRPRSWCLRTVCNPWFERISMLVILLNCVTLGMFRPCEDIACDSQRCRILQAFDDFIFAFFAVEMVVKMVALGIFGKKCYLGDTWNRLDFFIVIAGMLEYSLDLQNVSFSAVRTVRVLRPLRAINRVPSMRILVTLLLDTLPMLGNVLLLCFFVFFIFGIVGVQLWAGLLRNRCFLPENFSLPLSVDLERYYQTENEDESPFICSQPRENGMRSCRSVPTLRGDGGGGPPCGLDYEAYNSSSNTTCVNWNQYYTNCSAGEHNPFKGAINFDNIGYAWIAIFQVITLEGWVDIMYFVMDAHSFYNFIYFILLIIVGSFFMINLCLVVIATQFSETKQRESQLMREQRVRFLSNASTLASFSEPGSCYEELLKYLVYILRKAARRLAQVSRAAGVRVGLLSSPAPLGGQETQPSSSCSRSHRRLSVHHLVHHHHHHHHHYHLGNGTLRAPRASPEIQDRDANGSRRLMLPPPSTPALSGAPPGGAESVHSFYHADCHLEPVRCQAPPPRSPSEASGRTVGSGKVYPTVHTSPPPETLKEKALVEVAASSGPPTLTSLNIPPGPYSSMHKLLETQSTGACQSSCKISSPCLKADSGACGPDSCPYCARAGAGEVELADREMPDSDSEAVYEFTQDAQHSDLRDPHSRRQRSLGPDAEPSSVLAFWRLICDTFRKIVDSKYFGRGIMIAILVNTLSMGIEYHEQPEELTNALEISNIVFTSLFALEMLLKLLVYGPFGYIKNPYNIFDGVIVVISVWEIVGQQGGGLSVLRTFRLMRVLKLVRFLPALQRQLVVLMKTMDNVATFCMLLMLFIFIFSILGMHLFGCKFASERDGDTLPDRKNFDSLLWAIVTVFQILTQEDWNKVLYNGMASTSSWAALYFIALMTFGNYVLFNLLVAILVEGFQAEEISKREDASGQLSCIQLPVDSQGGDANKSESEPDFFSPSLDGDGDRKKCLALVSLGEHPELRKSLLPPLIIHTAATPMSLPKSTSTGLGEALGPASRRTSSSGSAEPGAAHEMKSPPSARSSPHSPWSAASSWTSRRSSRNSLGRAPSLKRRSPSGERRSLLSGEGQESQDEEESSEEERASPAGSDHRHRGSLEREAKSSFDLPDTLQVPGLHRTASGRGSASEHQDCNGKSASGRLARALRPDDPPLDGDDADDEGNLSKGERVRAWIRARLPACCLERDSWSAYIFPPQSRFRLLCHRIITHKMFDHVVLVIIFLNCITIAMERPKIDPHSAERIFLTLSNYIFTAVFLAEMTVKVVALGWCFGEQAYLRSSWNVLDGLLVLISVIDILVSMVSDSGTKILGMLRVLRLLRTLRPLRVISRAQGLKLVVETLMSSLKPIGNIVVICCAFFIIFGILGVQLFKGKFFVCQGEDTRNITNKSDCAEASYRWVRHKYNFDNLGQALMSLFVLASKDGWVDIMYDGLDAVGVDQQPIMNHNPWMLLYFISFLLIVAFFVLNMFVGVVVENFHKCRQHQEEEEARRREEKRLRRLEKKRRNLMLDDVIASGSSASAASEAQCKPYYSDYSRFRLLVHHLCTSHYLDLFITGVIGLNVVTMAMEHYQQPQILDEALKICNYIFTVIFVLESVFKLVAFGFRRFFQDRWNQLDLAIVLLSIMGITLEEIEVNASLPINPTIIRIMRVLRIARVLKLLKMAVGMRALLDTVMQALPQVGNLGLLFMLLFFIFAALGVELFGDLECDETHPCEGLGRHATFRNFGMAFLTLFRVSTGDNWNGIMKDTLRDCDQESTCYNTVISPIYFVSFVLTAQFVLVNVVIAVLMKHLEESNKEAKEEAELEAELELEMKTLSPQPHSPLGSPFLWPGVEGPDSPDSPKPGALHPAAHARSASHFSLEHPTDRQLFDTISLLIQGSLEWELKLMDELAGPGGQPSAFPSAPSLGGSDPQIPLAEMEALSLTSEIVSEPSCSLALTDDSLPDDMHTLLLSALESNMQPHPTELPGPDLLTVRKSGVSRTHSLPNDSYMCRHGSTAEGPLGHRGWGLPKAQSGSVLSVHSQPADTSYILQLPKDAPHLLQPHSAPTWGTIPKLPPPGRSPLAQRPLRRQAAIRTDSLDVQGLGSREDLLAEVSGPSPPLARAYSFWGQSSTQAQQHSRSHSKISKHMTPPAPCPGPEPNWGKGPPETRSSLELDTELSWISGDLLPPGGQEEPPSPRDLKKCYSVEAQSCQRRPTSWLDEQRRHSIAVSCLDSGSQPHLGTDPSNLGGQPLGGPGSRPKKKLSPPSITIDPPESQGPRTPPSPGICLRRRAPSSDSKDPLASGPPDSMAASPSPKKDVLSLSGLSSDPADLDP

IC50 (Cav3.2): 335 nM
IC50 (Cav3.3): 212 nM
EC50 [1]: 4.8 µM
IC50 (Cav3.1): 139 nM
Compound: Cc1ccc(C)c2[nH]c(CCCN(C)CC[C@@]3(OC(=O)N4CCOCC4)CCc4cc(F)ccc4[C@@H]3C(C)C)nc12 [Example 15, (1S,2S)-2-(2-((3-(4,7-Dimethyl-1H-benzo[d]imidazol-2-yl)propyl)(methyl)amino)ethyl)-6-fluoro-1-isopropyl-1,2,3,4-tetrahydronaphthalen-2-yl morpholine-4-carboxylate]
